In patent publication US9144557B2, “Hematopoietic growth factor mimetic small molecule compounds and their uses” (Ligand Pharmaceuticals Inc., priority 2009, dated 2015):

These compounds were tested on UT7/EPO Cell line (assay: Cell Proliferation Assay (UT7/EPO, ViaLight Plus)). Settings: proliferative effect; compounds at 10 uM; UT7/EPO cells starved of EPO overnight; 72 hours at 37° C.; ViaLight Plus kit.
Type: cell-based, human
How it was run: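 UT7/EPO human leukemia cells (endogenous EPO receptor, EPO-dependent growth) were EPO-starved overnight, then exposed to compounds at 10 uM for 72 hours at 37° C. Proliferation was read out by ATP-based luminescence (ViaLight Plus).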

| SMILES | Activity (%) |
| --- | --- |
| Cn1cccc1C(=O)Nc1ccc(Oc2ccc(NC(=O)c3ccc(N4CCC(O)CC4)cc3)cc2)cc1 [Compound 915, N-(4-(4-(4-(4-Hydroxypiperidin-1-yl)benzamido)phenoxy)phenyl)-1-methyl-1H-pyrrole-2-carboxamide] | 17% |
| Cn1ccc2cc(C(=O)Nc3ccc4c(cnn4-c4ccc(NC(=O)C5CC5)cc4)c3)ccc21 [Compound 930, N-(1-(4-(Cyclopropanecarboxamido)phenyl)-1H-indazol-5-yl)-1-methyl-1H-indole-5-carboxamide] | 12% |
| O=C(Nc1ccc(N2CCC(O)CC2)cc1)c1ccc2c(cnn2-c2ccc(NC(=O)C3CC3)cc2)c1 [Compound 945, 1-(4-(Cyclopropanecarboxamido)phenyl)-N-(4-(4-hydroxypiperidin-1-yl)phenyl)-1H-indazole-5-carboxamide] | 10% |
| O=C(Nc1ccc2c(ccn2-c2ccc(C(=O)NC3CC3)cc2)c1)c1ccc2c(ccn2CCN2CCOCC2)c1 [Compound 960, N-(1-(4-(Cyclopropylcarbamoyl)phenyl)-1H-indol-5-yl)-1-(2-morpholinoethyl)-1H-indole-5-carboxamide] | 17% |
| O=C(O)CNC(=O)Cn1ccc2cc(NC(=O)c3ccc(-n4ccc5cc(NC(=O)c6ccc(N7CCC(O)CC7)cc6)ccc54)cc3)ccc21 [Compound 975] | 17% |
| O=C(Nc1ccc(-n2ncc3cc(O)ccc32)cc1)c1ccc(N2CCC(O)CC2)cc1 [Compound 990, N-(4-(5-(Hydroxy)-1H-indazol-1-yl)phenyl)-4-(4-hydroxypiperidin-1-yl)benzamide] | 10% |
| O=C(Nc1ccc2c(cnn2-c2ccc(NC(=O)c3cnc4cc[nH]c4c3)cc2)c1)c1ccc(N2CCC(O)CC2)cc1 [Compound 1005, N-(4-(5-(4-(4-Hydroxypiperidin-1-yl)benzamido)-1H-indazol-1-yl)phenyl)-1H-pyrrolo[3,2-b]pyridine-6-carboxamide] | 13% |
| CCOC(=O)c1ccc(-n2ncc3cc(NC(=O)c4ccc(N5CCC(O)CC5)cc4)ccc32)cc1 [Compound 1030, Ethyl 4-(5-(4-(4-hydroxypiperidin-1-yl)benzamido)-1H-indazol-1-yl)benzoate] | 10% |
| N#CCNC(=O)c1ccc(-n2ncc3cc(NC(=O)c4ccc(N5CCC(O)CC5)cc4)ccc32)cc1 [Compound 1045, N-(Cyanomethyl)-4-(5-(4-(4-hydroxypiperidin-1-yl)benzamido)-1H-indazol-1-yl)benzamide] | 15% |
| O=C(NC1CC1)c1ccc(-n2cnc3cc(NC(=O)c4cc5ccccc5[nH]4)ccc32)cc1 [Compound 1060, N-(1-(4-(Cyclopropylcarbamoyl)phenyl)-1H-benzo[d]imidazol-5-yl)-1H-indole-2-carboxamide] | 18% |
| Cn1ccc(C(=O)Nc2ccc(-n3cc(C4CC4)c4cc(NC(=O)c5ccc(N6CCC(O)CC6)cc5)ccc43)cc2)c1 [Compound 1070, N-(4-(3-cyclopropyl-5-(4-(4-hydroxypiperidin-1-yl)benzamido)-1H-indol-1-yl)phenyl)-1-methyl-1H-pyrrole-3-carboxamide] | 15% |
| CN(C)c1ccc(C(=O)Nc2ccc(-c3nc4cc(NC(=O)c5ccc(N(C)C)cc5)ccc4[nH]3)cc2)cc1 [Compound 1700, 4-Dimethylamino-N-(4-(5-(4-dimethylaminobenzamido)-1H-benzimidazol-2-yl)phenyl)benzamide] | 17% |
| COC(=O)c1ccc(C(=O)Nc2ccc3[nH]c(-c4ccccc4)nc3c2)cc1 [Compound 1705, Methyl 4-(2-phenyl-1H-benzimidazol-5-ylcarbamoyl)-benzoate] | 12% |
| CN1CCN(c2ccc3nc(-c4ccc5[nH]c(-c6ccccc6)nc5c4)[nH]c3c2)CC1 [Compound 1710, 5-(6-(4-Methylpiperazino)-1H-benzimidazol-2-yl)-2-phenyl-1H-benzimidazole] | 11% |
| Nc1ccc(C(=O)Nc2ccc(-c3nc4c(Cl)c(NC(=O)c5ccc(N)cc5)ccc4[nH]3)cc2)cc1 [Compound 1715, 4-Amino-N-(4-(5-(4-aminobenzamido)-4-chloro-1H-benzimidazol-2-yl)phenyl)benzamide] | 10% |
| O=C(O)c1ccc(-c2nc3cc(NC(=O)c4ccc(N5CCCC5)cc4)ccc3[nH]2)cc1 [Compound 1719] | 17% |
| COc1cccc(C(=O)Nc2ccc3[nH]c(-c4ccccc4)nc3c2)c1 [Compound 1724, 3-Methoxy-N-(2-phenyl-1H-benzimidazol-5-yl)benzamide] | 13% |
| COc1ccc(-c2nc3cc(NC(=O)c4ccc(-n5cccc5)cc4)ccc3[nH]2)cc1 [Compound 1729, N-(2-(4-Methoxyphenyl)-1H-benzimidazol-5-yl)-4-pyrrolylbenzamide] | 14% |
| CN(C)c1ccc(C(=O)Nc2ccc3[nH]c(-c4ccc5c(ccn5C)c4)nc3c2)cc1 [Compound 1734, N-(2-(1-Methyl-1H-indol-5-yl)benzimidazol-5-yl)-4-dimethylaminobenzamide] | 20% |
| COC(=O)c1ccc(C(=O)Nc2ccc3[nH]c(-c4ccc(OC)cc4)nc3c2)cc1 [Compound 1739, Methyl 4-(2-(4-methoxyphenyl)-1H-benzimidazol-5-ylcarbamoyl)-benzoate] | 19% |
| CN(C)c1ccc(-c2nc3cc(-c4ccc5[nH]c(-c6ccc(N(C)C)cc6)nc5c4)ccc3[nH]2)cc1 [Compound 1744, 4,4′-(5,5′-Bibenzimidazole-2,2′-diyl)bis(N,N-dimethylaniline)] | 11% |
| O=C(Nc1ccccc1)c1ccc(-c2nc3cc(NC(=O)c4ccccc4)ccc3[nH]2)cc1 [Compound 1747, N-Phenyl-4-(5-benzamido-1H-benzimidazol-2-yl)benzamide] | 19% |
